According to the NIST ThermoML archive (doi:10.1021/je200373q):

Assay: xn = mol fraction of the nth substance listed
Settings: 101 kPa, Liquid, Vibrating tube method

CCCCC [pentane] + CCCCCCCCC
mass density [kg/m3]
Settings | x1 = 0.1034 | x1 = 0.205 | x1 = 0.3028 | x1 = 0.4006 | x1 = 0.5016 | x1 = 0.5988 | x1 = 0.6992 | x1 = 0.7993 | x1 = 0.8993
273.15 K | 727.17 | 721.15 | 714.81 | 707.86 | 700 | 691.84 | 682.27 | 672.39 | 659.26
278.15 K | 723.31 | 717.24 | 710.84 | 703.82 | 695.88 | 687.64 | 677.96 | 667.97 | 654.69
283.15 K | 719.43 | 713.31 | 706.84 | 699.75 | 691.73 | 683.4 | 673.62 | 663.51 | 650.07
288.15 K | 715.53 | 709.35 | 702.82 | 695.66 | 687.56 | 679.14 | 669.25 | 659.01 | 645.41
293.15 K | 711.62 | 705.38 | 698.79 | 691.54 | 683.36 | 674.84 | 664.84 | 654.47 | 640.71
298.15 K | 707.69 | 701.39 | 694.73 | 687.41 | 679.13 | 670.52 | 660.39 | 649.88 | 635.96
303.15 K | 703.75 | 697.38 | 690.65 | 683.24 | 674.87 | 666.16 | 655.91 | 645.26 | 631.15
308.15 K | 699.78 | 693.35 | 686.54 | 679.05 | 670.58 | 661.76 | 651.39 | 640.58 | 626.28
313.15 K | 695.79 | 689.3 | 682.41 | 674.83 | 666.26 | 657.33 | 646.82 | 635.85 | 621.36
318.15 K | 691.78 | 685.21 | 678.25 | 670.58 | 661.9 | 652.86 | 642.21 | 631.07 | 616.37
323.15 K | 687.74 | 681.1 | 674.06 | 666.29 | 657.51 | 648.34 | 637.54 | 626.24 | –
328.15 K | 683.68 | 676.97 | 669.83 | 661.97 | 653.07 | 643.78 | 632.82 | 621.34 | –
333.15 K | 679.6 | 672.8 | 665.58 | 657.61 | 648.6 | 639.17 | 628.05 | 616.38 | –
338.15 K | 675.48 | 668.6 | 661.28 | 653.21 | 644.08 | 634.51 | – | – | –
343.15 K | 671.34 | 664.37 | 656.96 | 648.78 | – | – | – | – | –
348.15 K | 667.16 | 660.1 | 652.59 | 644.3 | – | – | – | – | –
353.15 K | 662.95 | 655.79 | 648.19 | 639.79 | – | – | – | – | –
358.15 K | 658.7 | 651.45 | 643.74 | – | – | – | – | – | –
363.15 K | 654.42 | 647.07 | 639.25 | – | – | – | – | – | –
